Consider 24 compounds from US20090275586A1, “HETEROCYCLIC INHIBITORS OF PDE4” (KALYPSYS, INC., priority 2006, published 2009).

The structures appear in SMILES notation.

One test concerns the target T1, PDE4B (Homo sapiens, UniProt Q07343).
T1 construct: hexa-histidine (His6) (N); made in house
Nature of the test: PDE4 IMAP Assay. The class given is biochemical. As to conditions: 2 h; Activity at 10 μM; catalytic domain of PDE4B; read-out: PDE IMAP Assay. An excerpt: Compounds may be screened for functional potency in in vitro biochemical assays for their ability to inhibit the activity of phosphodiesterase (PDE) enzymes. A commercial PDE assay, Molecular Device's PDE IMAP assay, was modified and utilized to measure the inhibitory activity of compounds on PDE isoforms. The IMAP technology is based on the high affinity binding of phosphate by immobilized metal (MIII) coordination complexes on nanoparticles. This IMAP “binding reagent” complexes with phosphate groups on the nucleotide monophosphates generated in the reaction. Such binding causes a change in the rate of the molecular motion of the nucleotide, and results in an increase in the fluorescence polarization value observed for the fluorescent label attached to the substrate. PDE inhibitors prevent the generation of nucleotide monophosphates and the subsequent increase in polarization value observed for the fluorescent label attached to the substrate. The catalytic domain of PDE4B was fused to an amino-terminus hex-histadine affinity tag and purified. PDE4B enzyme was incubated with compounds for 10 minutes. Fluorescently labeled cyclic AMP substrates were then added to the PDE enzyme mix and incubated for 2 hours at room temperature. IMAP binding reagent was then added to the enzyme mix, incubated for 10-30 minutes and fluorescent polarization of the fluorescently labeled substrate was read either with the Perkin Elmer Viewlux or Molecular Devices Acquest or Analyst. Roflumilast and Rolipram are the positive controls used in the assay.

The test system of another test is PDE4. Nature of the test: PDE4 Cellular CNG Assay. The class given is cell-based. As to conditions: Activity at 10 μM; HEK293 cells stably expressing the CNG channel. An excerpt: Compounds may be screened for functional potency in in vitro cellular assays for their ability to inhibit the activity of phosphodiesterase (PDE) enzymes. A commercial membrane potential assay, Molecular Device's membrane potential assay kit, was modified and utilized to measure the inhibitory activity of compounds on PDE isoforms in living cells. The cellular assay utilizes genetically engineered cyclic nucleotide-gated (CNG) channels as cyclic-AMP (cAMP) sensors. On binding cAMP these ion channels open, allowing the flow of cations across the plasma membrane. CNG channel activity can be monitored by measuring Ca^2+ influx in cell populations. The influx of Ca causes a change in membrane potential that is measured by voltage sensitive dyes. PDE inhibitors prevent the degradation of cAMP that is generated by adenylyl cyclases that are activated upon stimulation of G protein-coupled receptors (GPCR) linked to the cAMP pathway. In brief, Molecular Device's membrane potential dye was added to HEK293 cells stably expressing the CNG channel and incubated for 2 hours at room temperature. Test compounds were then added to the cells and incubated for 15 minutes. A GPCR agonist was then added to the cells to stimulate the cAMP pathway and incubated for 45 minutes. Fluorescent measurements were then conducted with either the Molecular Devices Acquest or Analyst. PDE inhibitors will inhibit the degradation of cAMP and cause an increase in fluorescent signal. Roflumilast and Rolipram are the positive controls used in the assay.

T1 sequence (Q07343 330-659 limits assumed, species assumed): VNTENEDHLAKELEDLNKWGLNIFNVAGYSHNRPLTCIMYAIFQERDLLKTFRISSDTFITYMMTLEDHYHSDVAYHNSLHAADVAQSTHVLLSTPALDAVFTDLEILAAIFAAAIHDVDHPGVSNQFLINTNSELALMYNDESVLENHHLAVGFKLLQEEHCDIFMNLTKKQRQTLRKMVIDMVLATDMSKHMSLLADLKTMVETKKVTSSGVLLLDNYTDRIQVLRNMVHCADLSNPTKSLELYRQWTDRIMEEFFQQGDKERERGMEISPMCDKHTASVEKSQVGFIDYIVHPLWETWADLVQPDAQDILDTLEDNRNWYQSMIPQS

Regarding `COc1ccc(CN(C)C(=O)c2cnn(-c3nccc(-c4cccs4)n3)c2C)cc1OC` [Example 5, N-(3,4-dimethoxybenzyl)-N,5-dimethyl-1-(4-(thiophen-2-yl)pyrimidin-2-yl)-1H-pyrazole-4-carboxamide], the inhibition at 10 µM on PDE4B was not below 50%. Also, the “Cellular CNG Assay” value with PDE4 is “+ (+indicates Activity ≧ 50% at 10 μM)”.
In the case of `CC(C)CCn1c(=O)c2ccccc2n2c(CN3CCN(c4ncccn4)CC3)nnc12` [Example 26, 4-Isopentyl-1-((4-(pyrimidin-2-yl)piperazin-1-yl)methyl)-[1,2,4]triazolo[4,3-a]quinazolin-5(4H)-one], the inhibition at 10 µM at PDE4B is not below 50%. The “Cellular CNG Assay” value in the test with PDE4 was “+ (+indicates Activity ≧ 50% at 10 μM)”.
On to `CCOC(=O)N1CCN(C(=O)c2cnn3c(C(F)(F)F)cc(-c4ccc(OC)c(OC)c4)nc23)CC1` [Example 17, Ethyl 4-(5-(3,4-dimethoxyphenyl)-7-(trifluoromethyl)pyrazolo[1,5-a]pyrimidine-3-carbonyl)piperazine-1-carboxylate], for which, on PDE4B, the inhibition at 10 µM is not below 50%. For the same compound, in the test on PDE4, the “Cellular CNG Assay” value was “+ (+indicates Activity ≧ 50% at 10 μM)”.
The like results for `CCOc1ncccc1C(=O)Nc1ccc(S(=O)(=O)Nc2nccs2)cc1` [Example 20, 2-Ethoxy-N-(4-(N-thiazol-2-ylsulfamoyl)phenyl)nicotinamide] were, in that order, not below 50% and “+ (+indicates Activity ≧ 50% at 10 μM)”.
The like results for `COc1ccc(CN(Cc2ccncc2)C(=O)c2ccc3[nH]c(C)c(C)c3c2)cc1OC` [Example 3, N-(3,4-dimethoxybenzyl)-2,3-dimethyl-N-(pyridin-4-ylmethyl)-1H-indole-5-carboxamide] were, in that order, not below 50% and “+ (+indicates Activity ≧ 50% at 10 μM)”.
In the same order, the values of `CCOc1ccccc1C(=O)Nc1c2c(nn1-c1cccc(Cl)c1)CS(=O)(=O)C2` [Example 14] are not below 50% and “− (−indicates Activity < 50% at 10 μM)”.
`COc1ccc(CN(C(=O)c2cccc3ccccc23)C2CCCC2)cc1OC(C)C` [Example 4, N-cyclopentyl-N-(3-isopropoxy-4-methoxybenzyl)-1-naphthamide]: the inhibition at 10 µM on PDE4B was not below 50%. Further, the “Cellular CNG Assay” value in the test on PDE4 is “+ (+indicates Activity ≧ 50% at 10 μM)”.
The like results for `CC(C)c1nc2sc3c(NCCCO)ncnc3c2c2c1COC(C)(C)C2` [Example 8, 3-(5-Isopropyl-2,2-dimethyl-1,4-dihydro-2H-3-oxa-7-thia-6,9,11-triazabenzo[c]fluoren-8-ylamino)-propan-1-ol] were, in that order, not below 50% and “+ (+indicates Activity ≧ 50% at 10 μM)”.
The like results for `COc1ccc(NC(=O)c2ccccc2C(F)(F)F)cc1OC1CCCC1` [Example 12, N-(3-(cyclopentyloxy)-4-methoxyphenyl)-2-(trifluoromethyl)benzamide] were, in that order, not below 50% and “+ (+indicates Activity ≧ 50% at 10 μM)”.
For the compound `COc1ccc(-c2cn3ccnc3c(NCc3ccccc3)n2)cc1OC` [Example 24, N-benzyl-6-(3,4-dimethoxyphenyl)imidazo[1,2-a]pyrazin-8-amine], at PDE4B, the inhibition at 10 µM was not below 50%.
On to `COc1ccc(S(=O)(=O)N2CC(C)(C)Oc3ccc(NC(=O)c4cccnc4SC)cc32)cc1OC` [Example 10, N-(4-(3,4-dimethoxyphenylsulfonyl)-2,2-dimethyl-3,4-dihydro-2H-benzo[b][1,4]oxazin-6-yl)-2-(methylthio)nicotinamide], for which, at PDE4B, the inhibition at 10 µM was not below 50%. In addition, the “Cellular CNG Assay” value in the test with PDE4 is “+ (+indicates Activity ≧ 50% at 10 μM)”.
On to `CCOC(=O)C1=C(C)N(CC(C)C)C(=O)/C1=C\c1ccc(OC)c(OC)c1` [Example 29, (Z)-Ethyl 4-(3,4-dimethoxybenzylidene)-1-isobutyl-2-methyl-5-oxo-4,5-dihydro-1H-pyrrole-3-carboxylate], for which, on PDE4B, the inhibition at 10 µM is not below 50%. In addition, the “Cellular CNG Assay” value in the test with PDE4 was “+ (+indicates Activity ≧ 50% at 10 μM)”.
Take `CC(C)n1c(=O)c(=O)n(Cc2cccc(C(F)(F)F)c2)c2cc(S(C)(=O)=O)ccc21` [Example 15, 1-Isopropyl-6-(methylsulfonyl)-4-(3-(trifluoromethyl)benzyl)quinoxaline-2,3(1H,4H)-dione]: the inhibition at 10 µM at PDE4B is not below 50%. In the test with PDE4, the “Cellular CNG Assay” value is given as “+ (+indicates Activity ≧ 50% at 10 μM)”.
In the case of `CSc1nc(NC2CCCCC2)c2sccc2n1` [Example 13, N-cyclohexyl-2-(methylthio)thieno[3,2-d]pyrimidin-4-amine], on PDE4B, the inhibition at 10 µM is not below 50%. The “Cellular CNG Assay” value in the test with PDE4 is listed as “+ (+indicates Activity ≧ 50% at 10 μM)”.
Consider `CCc1cccc(C)c1Nc1cc(NCCc2ccc(OC)c(OC)c2)ncn1` [Example 6, N4-(3,4-dimethoxyphenethyl)-N6-(2-ethyl-6-methylphenyl)pyrimidine-4,6-diamine], for which the inhibition at 10 µM at PDE4B is not below 50%. Besides, in the test on PDE4, the “Cellular CNG Assay” value was “+ (+indicates Activity ≧ 50% at 10 μM)”.
Consider `C/C(NCCO)=C1\C(=O)N(c2nc3ccccc3s2)N=C1c1ccccc1` [Example 28, (E)-1-(Benzo[d]thiazol-2-yl)-4-(1-(2-hydroxyethylamino)ethylidene)-3-phenyl-1H-pyrazol-5(4H)-one], for which the inhibition at 10 µM at PDE4B is not below 50%. Besides, the “Cellular CNG Assay” value in the test on PDE4 is “+ (+indicates Activity ≧ 50% at 10 μM)”.
In the same order, the values of `Cc1ccc(S(=O)(=O)c2nnn3c2nc(NC(C)C)c2sccc23)cc1` [Example 7, N-isopropyl-3-tosylthieno[2,3-e][1,2,3]triazolo[1,5-a]pyrimidin-5-amine] are not below 50% and “− (−indicates Activity < 50% at 10 μM)”.
The like results for `CCNc1nc(NCC)n2c(SCc3nc4ccccc4c(=O)[nH]3)nnc2n1` [Example 2, 2-((5,7-Bis(ethylamino)-[1,2,4]triazolo[4,3-a][1,3,5]-triazin-3-ylthio)methyl)quinazolin-4(3H)-one] were, in that order, not below 50% and “+ (+indicates Activity ≧ 50% at 10 μM)”.
For the compound `O=C(c1cccc(N2CCNC2=O)c1)N(CCC1=CCCCC1)Cc1cc2cc3c(cc2nc1N1CCOCC1)OCO3` [Example 19, N-(2-cyclohexenylethyl)-N-((6-morpholino-[1,3]dioxolo[4,5-g]quinolin-7-yl)methyl)-3-(2-oxoimidazolidin-1-yl)benzamide], the inhibition at 10 µM on PDE4B is not below 50%. The “Cellular CNG Assay” value in the test on PDE4 is given as “+ (+indicates Activity ≧ 50% at 10 μM)”.
Take `O=c1n(Cc2ccncc2)nc2c3ccccc3nc(C3CC3)n12` [Example 21, 5-Cyclopropyl-2-(pyridin-4-ylmethyl)-[1,2,4]triazolo[4,3-c]quinazolin-3(2H)-one]: on PDE4B, the inhibition at 10 µM is not below 50%. Also, in the test on PDE4, the “Cellular CNG Assay” value is recorded as “+ (+indicates Activity ≧ 50% at 10 μM)”.
In the same order, the values of `COC(=O)c1ccc(Cn2c(=O)c(=O)n(C(C)C)c3ccc(C(F)(F)F)cc32)cc1` [Example 16, Methyl 4-((4-isopropyl-2,3-dioxo-7-(trifluoromethyl)-3,4-dihydroquinoxalin-1(2H)-yl)methyl)benzoate] are not below 50% and “+ (+indicates Activity ≧ 50% at 10 μM)”.
`NC(=O)CSc1nc2sc3c(c2c(=O)n1C1CCCC1)CCCC3` [Example 1, 2-(3-Cyclopentyl-4-oxo-3,4,5,6,7,8-hexahydro-benzo[4]thieno[2,3-d]pyrimidin-2-ylsulfanyl)-acetamide]: at PDE4B, the inhibition at 10 µM was not below 50%. Besides, the “Cellular CNG Assay” value in the test on PDE4 is listed as “+ (+indicates Activity ≧ 50% at 10 μM)”.
In the same order, the values of `COc1ccccc1Cn1c(=O)c2cccnc2n(Cc2ccccc2F)c1=O` [Example 27, 1-(2-Fluorobenzyl)-3-(2-methoxybenzyl)pyrido[2,3-d]pyrimidine-2,4(1H,3H)-dione] are not below 50% and “+ (+indicates Activity ≧ 50% at 10 μM)”.
`COc1ccc(-c2cnnn2-c2ccc(NC(=O)c3ccc4c(c3)OCO4)cc2)cc1OC` [Example 23, N-(4-(5-(3,4-dimethoxyphenyl)-1H-1,2,3-triazol-1-yl)phenyl)benzo[d][1,3]dioxole-5-carboxamide]: on PDE4B, the inhibition at 10 µM is not below 50%. Moreover, the “Cellular CNG Assay” value in the test on PDE4 is given as “+ (+indicates Activity ≧ 50% at 10 μM)”.
